Measurements published in patent publication US8227406B2, “Antimicrobial peptides” (Dermagen AB, priority 2006, dated 2012).
“And” between values parts separate entries of the source, which are not always exact repeats. Equal entries are not always repeated.

Columns and labels:
[1] = system: Eschericia coli ATCC25922; assay: Radial diffusion assay (RDA), E. coli; format: cell-based, Escherichia coli; design: Data (RDA antimicrobial activity, single replicates) / Mean (RDA antimicrobial activity): unit not given here; conditions: for Data (RDA antimicrobial activity, single replicates) / Mean (RDA antimicrobial activity): E. coli; for Data (RDA antimicrobial activity, single replicates): individual replicate; for Mean (RDA antimicrobial activity): mean of 3
Procedure, shortened: (§1)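 Peptides (20-mers, crude, 5 mM water stock) applied at 6 μl per well to agarose underlay (0.03% TSB, 0.02% Tween 20) holding 4×10^6 bacterial or 1×10^5 fungal cfu from mid-log cultures washed in 10 mM Tris pH 7.4. After 3 h diffusion at 37 °C and nutrient overlay, clear zones read after 18–24 h (37 °C bacteria, 28 °C C. albicans).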

[2] = system: erythrocytes; assay: Hemolysis assay; format: cell-based; conditions: % of TritonX-100 induced hemolysis; erythrocytes 1 h at 37° C.; peptides (3-60 μM)
Experimental: EDTA-blood was centrifuged at 800 g for 10 min, whereafter plasma and buffy coat were removed. The erythrocytes were washed three times and resuspended in 5% PBS, pH 7.4. The cells were then incubated with end-over-end rotation for 1 h at 37° C. in the presence of peptides (3-60 μM). 2% Triton X-100 (Sigma-Aldrich) served as positive control. The samples were then centrifuged at 800 g for 10 min. The absorbance of hemoglobin release was measured at λ 540 nm and is in the plot expressed as % of TritonX-100 induced hemolysis (Table 1a).

[3] = system: Candida albicans ATCC90028; assay: Radial diffusion assay (RDA), C. albicans; format: cell-based; design: unit not given here; conditions: for RDA Mean, C. albicans / RDA Data (single replicates), C. albicans: Table 1c; for RDA Data (single replicates), C. albicans: individual values
Experimental: Peptides. Peptides were from Sigma-Genosys, generated by a peptide synthesis platform (PEPscreen®, Custom Peptide Libraries, SigmaGenosys). Yield was ˜1-6 mg, and peptide length 20 amino acids. MALDI-ToF Mass Spectrometry was perfomed on these peptides. Average Crude Purity of 20mers was ˜60%. Peptides were supplied lyophilized and in a 96-well tube rack. Prior to biological testing the PEPscreen peptides were diluted in dH2O (5 mM stock), and stored at −20 C. This stock solution was used for the subsequent experiments.
Eschericia coli ATCC25922, Staphylococcus aureus ATCC29213, and the fungal isolate Candida albicans ATCC90028 were obtained from the Department of Bacteriology, Lund University Hospital.
Radial diffusion assays (RDA) were performed essentially as described earlier (Lehrer, R. I., Rosenman, M., Harwig, S. S., Jackson, R. & Eisenhauer, P. (1991) Ultrasensitive assays for endogenous antimicrobial polypeptides, J Immunol Methods. 137, 167-73). Briefly, bacteria (E. coli, S. aureus) or fungi (C. albicans) were grown to midlogarithmic phase in 10 ml of full-strength (3% w/v) trypticase soy broth (TSB) (Becton-Dickinson, Cockeysville, Md.). The microorganisms were washed once with 10 mM Tris, pH 7.4. 4×10^6 bacterial cfu or 1×10^5 fungal cfu was added to 5 ml of the underlay agarose gel, consisting of 0.03% (w/v) TSB, 1% (w/v) low-electroendoosmosistype (Low-EEO) agarose (Sigma, St Louise Mo.) and a final concentration of 0.02% (v/v) Tween 20 (Sigma). The underlay was poured into a Ø 85 mm petri dish. After agarose solidified, 4 mm-diameter wells were punched and 6 μl of test sample was added to each well. Plates were incubated at 37° C. for 3 hours to allow diffusion of the peptides. The underlay gel was then covered with 5 ml of molten overlay (6% TSB and 1% Low-EEO agarose in dH2O). Antimicrobial activity of a peptide is visualized as a clear zone around each well after 18-24 hours of incubation at 37° C. for bacteria and 28° C. for Candida albicans. Other examples of peptides that were screened and found to show an increased effect against the above mentioned microorgansism are listed below. Some of the results are found in table 1c showing the effects against C. albicans, table 1d E. coli and table 1e S. aureus.

[4] = system: Staphylococcus aureus ATCC29213; assay: Radial diffusion assay (RDA), S. aureus; format: cell-based; design: Data (RDA antimicrobial activity, single replicates) / Mean (RDA antimicrobial activity): unit not given here; conditions: for Data (RDA antimicrobial activity, single replicates) / Mean (RDA antimicrobial activity): S. aureus; for Data (RDA antimicrobial activity, single replicates): individual replicate; for Mean (RDA antimicrobial activity): mean of 3
Procedure, shortened: as §1

[5] = Table 1b, 10 mM Tris Hcl (pH 7.4)

In the case of CC[C@H](C)[C@H](NC(=O)[C@H](CCCCN)NC(=O)[C@H](CCC(=O)O)NC(=O)[C@H](CCCCN)NC(=O)[C@H](CO)NC(=O)[C@H](CCCCN)NC(=O)[C@H](CCCNC(=N)N)NC(=O)[C@H](Cc1ccccc1)NC(=O)[C@H](Cc1ccccc1)NC(=O)[C@H](CC(=O)O)NC(=O)CNC(=O)[C@H](CC(C)C)NC(=O)[C@@H](N)CC(C)C)C(=O)NCC(=O)N[C@@H](CCCCN)C(=O)N[C@@H](CCC(=O)O)C(=O)N[C@@H](Cc1ccccc1)C(=O)N[C@@H](CCCCN)C(=O)N[C@@H](CCCNC(=N)N)C(=O)N[C@H](C(=O)N[C@H](C(=O)N[C@@H](CCC(N)=O)C(=O)N[C@@H](CCCNC(=N)N)C(=O)N[C@H](C(=O)N[C@@H](CCCCN)C(=O)N[C@@H](CC(=O)O)C(=O)N[C@@H](Cc1ccccc1)C(=O)N[C@@H](CC(C)C)C(=O)N[C@@H](CCCNC(=N)N)C(=O)N[C@@H](CC(N)=O)C(=O)N[C@@H](CC(C)C)C(=O)N[C@H](C(=O)N1CCC[C@H]1C(=O)N[C@@H](CCCNC(=N)N)C(=O)N[C@H](C(=O)N[C@@H](CCC(=O)O)C(=O)N[C@@H](CO)C(=O)O)[C@@H](C)O)C(C)C)[C@@H](C)CC)C(C)C)[C@@H](C)CC [LL-37, reference compound], the “E.coli ATCC 25922 Mean, Ingrowth* counted” value ([1]; Table 1a, RDA clear zone, ingrowth counted) is reported as 6.53, the “E.coli ATCC 25922 Mean, Ingrowth not counted” value ([1]; Table 1a, RDA clear zone, ingrowth not counted) is reported as 0.653 and the “RDA values (mm) E. coli ATCC 25922” value [1, 5] is reported as 7.55 mm. For the same molecule, the “Hemolysis (%) Mean” value [2] was 21.464%, the “Candida albicans ATCC 90028 Mean” value ([3]; Table 1a, RDA clear zone) was 4.890 and the “S. aureus ATCC 29213 Mean” value ([4]; Table 1a, RDA clear zone) was 4.660. The “RDA values (mm) S. aureus ATCC 29213” value [4, 5] was 3.23 mm.

With PKRKKKGGKNGKNRRNRKKKNWWW [PKR-21-WWW] the “Data (RDA antimicrobial activity, single replicates)” value ([1]; peptide 0.1 μM) was 0, the “Mean (RDA antimicrobial activity)” value ([1]; peptide 0.1 μM) was 0.00 and the “Data (RDA antimicrobial activity, single replicates)” value ([1]; peptide 0.5 μM) was 1.26 and 1.05 and 0.84. The “Mean (RDA antimicrobial activity)” value ([1]; peptide 0.5 μM) was 1.05, the “Data (RDA antimicrobial activity, single replicates)” value ([1]; peptide 1 μM) was 3.6 and 2.59 and 3.49 and the “Mean (RDA antimicrobial activity)” value ([1]; peptide 1 μM) was 3.23. For the same molecule, the “Data (RDA antimicrobial activity, single replicates)” value ([1]; peptide 5 μM) was 4.99 and 5.03 and 4.75, the “Mean (RDA antimicrobial activity)” value ([1]; peptide 5 μM) was 4.92 and the “Data (RDA antimicrobial activity, single replicates)” value ([1]; peptide 10 μM) was 5.86 and 5.87 and 6.13. The “Mean (RDA antimicrobial activity)” value ([1]; peptide 10 μM) was 5.95, the “Data (RDA antimicrobial activity, single replicates)” value ([1]; peptide 50 μM) was 7.71 and 7.97 and 6.98 and the “Mean (RDA antimicrobial activity)” value ([1]; peptide 50 μM) was 7.55. The “Data (RDA antimicrobial activity, single replicates)” value ([1]; peptide 100 μM) was 7.34 and 8.26 and 7.99, the “Mean (RDA antimicrobial activity)” value ([1]; peptide 100 μM) was 7.86 and the “RDA Mean, C. albicans” value ([3]; peptide 0.1 μM) was 0.00. The “RDA Data (single replicates), C. albicans” value (“RDA Data (single replicates)” for short) ([3]; peptide 0.1 μM) was 0.00, the “RDA Mean, C. albicans” value ([3]; peptide 0.5 μM) was 0.00 and the “RDA Data (single replicates)” value ([3]; peptide 0.5 μM) was 0.00. The “RDA Mean, C. albicans” value ([3]; peptide 1 μM) was 0.49, the “RDA Data (single replicates)” value ([3]; peptide 1 μM) was 0.55 and 0.42 and 0.51 and the “RDA Mean, C. albicans” value ([3]; peptide 5 μM) was 1.14. For the same molecule, the “RDA Data (single replicates)” value ([3]; peptide 5 μM) was 1.26 and 1.06 and 1.10, the “RDA Mean, C. albicans” value ([3]; peptide 10 μM) was 3.11 and the “RDA Data (single replicates)” value ([3]; peptide 10 μM) was 3.54 and 2.82 and 2.97. For the same molecule, the “RDA Mean, C. albicans” value ([3]; peptide 50 μM) was 5.47, the “RDA Data (single replicates)” value ([3]; peptide 50 μM) was 5.84 and 5.44 and 5.13 and the “RDA Mean, C. albicans” value ([3]; peptide 100 μM) was 6.97. The “RDA Data (single replicates)” value ([3]; peptide 100 μM) was 6.69 and 7.04 and 7.19, the “Data (RDA antimicrobial activity, single replicates)” value ([4]; peptide 0.1 μM) was 0 and the “Mean (RDA antimicrobial activity)” value ([4]; peptide 0.1 μM) was 0.00. For the same molecule, the “Data (RDA antimicrobial activity, single replicates)” value ([4]; peptide 0.5 μM) was 0, the “Mean (RDA antimicrobial activity)” value ([4]; peptide 0.5 μM) was 0.00 and the “Data (RDA antimicrobial activity, single replicates)” value ([4]; peptide 1 μM) was 2.56 and 2.59 and 3.06. For the same molecule, the “Mean (RDA antimicrobial activity)” value ([4]; peptide 1 μM) was 2.74, the “Data (RDA antimicrobial activity, single replicates)” value ([4]; peptide 5 μM) was 2.98 and 2.5 and 3.07 and the “Mean (RDA antimicrobial activity)” value ([4]; peptide 5 μM) was 2.85. The “Data (RDA antimicrobial activity, single replicates)” value ([4]; peptide 10 μM) was 3.53 and 4.06 and 3.83, the “Mean (RDA antimicrobial activity)” value ([4]; peptide 10 μM) was 3.81 and the “Data (RDA antimicrobial activity, single replicates)” value ([4]; peptide 50 μM) was 4.21 and 5.14 and 4.23. For the same molecule, the “Mean (RDA antimicrobial activity)” value ([4]; peptide 50 μM) was 4.53, the “Data (RDA antimicrobial activity, single replicates)” value ([4]; peptide 100 μM) was 4.77 and 5.67 and 5.02 and the “Mean (RDA antimicrobial activity)” value ([4]; peptide 100 μM) was 5.15.
